{"source": "paper PMC7545998", "about": "“A snake toxin as a theranostic agent for the type 2 vasopressin receptor” (Theranostics, 2020)", "key": {"Sprague-Dawley rats": {"tested_on": "Sprague-Dawley rats", "assay": "Diuresis and urine osmolality with daily i.p. injection of 3 nmol/kg for 4 days", "type": "in vivo, rat", "settings": "daily i.p. 3 nmol/kg; for Diuresis Average / Excretion Average / Osmolarity Average: N=5", "method": "We injected this dose daily for 4 days and measured urine volume and osmolality.\nSprague-Dawley rats are aged between 6 and 12 weeks, between 237 g and 545 g and were use up to 3 times. […] Urine was collected at various times, and centrifuged for 30 min at 20,800 g. Urine osmolality was determined with an osmometer (Knauer, Berlin, Germany). For the pharmacokinetic experiments, a catheter was implanted in the rat jugular vein five days before the experiment. Blood samples of 400 μl were taken at various times under heparin conditions. Blood was centrifuged at 2000 g for 5 min at 4 °C and plasma was frozen at -20 °C."}, "[1]": {"tested_on": "porcine kidney epithelial cells LLC-pk1", "assay": "Confocal imaging of endogenous V2R in LLC-pk1 cells", "type": "cell-based", "settings": "3.4 µM, 30-min pre-incubation", "method": "In cells endogenously expressing V2R, such as porcine kidney epithelial cells LLC-pk1, labeling of V2R with AFDye-488-MQ1 and Cy5.5-MQ1 (100 nM) was performed with either fresh or PFA-fixed cells (Figures 7A and B). […] In the pathophysiological context, three renal cancer cell lines (CAKI-2, ACHN and A498 [38]) known to express V2R were tested. […] The presence of V2R, at the cell membrane level, fluctuated as a function of cell density and the number of cell divisions, whatever the cell line used. […] To our knowledge, this is the first specific ligand labeling of V2R in non-permeabilized cancer cells.\nFreshly dissociated CHO, LLC-PK1 or renal cancer cell lines expressing vasopressin receptors were seeded on 12-mm glass coverslips pre-coated with poly-ornithine, cultured for 48 h before incubation in DMEM, 0.2 mg/mL BSA, 25 mM HEPES, pH 7.4 for 1 h at 12°C or 30 min at 22 °C with fluorescent analogues in the absence or presence of non-fluorescent ligands (30-min pre-incubation). After 3 washes with cold PBS, the cells were finally fixed in 4% PFA overnight at 4 °C and mounted with Mowiol. The fluorescent cells were imaged using a Zeiss LSM510 Meta confocal microscope equipped with a ×63 (NA 1.4) oil immersion objective. For excitation, available laser rays were 488 and 633 nm and emission signals were collected in multitracking mode with appropriate band pass filters. […]"}}}
{"substance": "mambaquaretin [MQ1]", "values": [{"measurement": "half-life of diuresis decrease", "setting": "Sprague-Dawley rats; day 1", "value": 1.6, "unit": "h"}, {"measurement": "Diuresis Average", "setting": "Sprague-Dawley rats; day 1, 24-h period", "value": 6.3, "unit": "mL/h/kg"}, {"measurement": "Excretion Average", "setting": "Sprague-Dawley rats; day 1, 24-h period", "value": 1919, "unit": "µOsm/h/kg"}, {"measurement": "Osmolarity Average", "setting": "Sprague-Dawley rats; day 1, 24-h period", "value": 328, "unit": "mOsm/kg H2O"}, {"measurement": "half-life of diuresis decrease", "setting": "Sprague-Dawley rats; day 2", "value": 1.3, "unit": "h"}, {"measurement": "Diuresis Average", "setting": "Sprague-Dawley rats; day 2, 24-h period", "value": 5.9, "unit": "mL/h/kg"}, {"measurement": "Excretion Average", "setting": "Sprague-Dawley rats; day 2, 24-h period", "value": 1820, "unit": "µOsm/h/kg"}, {"measurement": "Osmolarity Average", "setting": "Sprague-Dawley rats; day 2, 24-h period", "value": 317, "unit": "mOsm/kg H2O"}, {"measurement": "half-life of diuresis decrease", "setting": "Sprague-Dawley rats; day 3", "value": 1.3, "unit": "h"}, {"measurement": "Diuresis Average", "setting": "Sprague-Dawley rats; day 3, 24-h period", "value": 6.00, "unit": "mL/h/kg"}, {"measurement": "Excretion Average", "setting": "Sprague-Dawley rats; day 3, 24-h period", "value": 1805, "unit": "µOsm/h/kg"}, {"measurement": "Osmolarity Average", "setting": "Sprague-Dawley rats; day 3, 24-h period", "value": 313, "unit": "mOsm/kg H2O"}, {"measurement": "half-life of diuresis decrease", "setting": "Sprague-Dawley rats; day 4", "value": 1.6, "unit": "h"}, {"measurement": "Diuresis Average", "setting": "Sprague-Dawley rats; day 4, 24-h period", "value": 5.7, "unit": "mL/h/kg"}, {"measurement": "Excretion Average", "setting": "Sprague-Dawley rats; day 4, 24-h period", "value": 1940, "unit": "µOsm/h/kg"}, {"measurement": "Osmolarity Average", "setting": "Sprague-Dawley rats; day 4, 24-h period", "value": 326, "unit": "mOsm/kg H2O"}, {"measurement": "effect on labeling by AFDye-488-MQ1 and Cy5.5-MQ1", "setting": "[1]", "value": "inhibited the labeling"}]}
